Active and inactive are the calls of the source.
Legend:
[1] = biological target: Non-receptor tyrosine-protein kinase TYK2 (Homo sapiens, UniProt P29597)
[2] = biological target: T1, Mitogen-activated protein kinase kinase kinase 2 (Homo sapiens, UniProt Q9Y2U5)
T1 sequence (Q9Y2U5 whole entry): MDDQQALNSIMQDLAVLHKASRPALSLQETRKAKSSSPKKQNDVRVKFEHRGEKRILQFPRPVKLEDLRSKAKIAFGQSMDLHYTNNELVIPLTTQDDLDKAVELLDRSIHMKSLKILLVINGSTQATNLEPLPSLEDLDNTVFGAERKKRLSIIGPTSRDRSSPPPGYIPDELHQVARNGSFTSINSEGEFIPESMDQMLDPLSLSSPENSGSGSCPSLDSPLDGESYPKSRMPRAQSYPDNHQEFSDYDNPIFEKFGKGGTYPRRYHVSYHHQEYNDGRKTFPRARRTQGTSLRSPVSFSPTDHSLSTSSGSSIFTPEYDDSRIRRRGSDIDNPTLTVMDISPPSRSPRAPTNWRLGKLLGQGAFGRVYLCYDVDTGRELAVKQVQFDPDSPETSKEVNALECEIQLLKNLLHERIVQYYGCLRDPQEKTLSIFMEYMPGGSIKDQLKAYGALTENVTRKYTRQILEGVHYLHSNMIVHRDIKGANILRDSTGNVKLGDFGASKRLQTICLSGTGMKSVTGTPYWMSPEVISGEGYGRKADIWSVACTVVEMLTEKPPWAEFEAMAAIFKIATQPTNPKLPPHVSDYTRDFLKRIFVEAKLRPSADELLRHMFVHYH

[3] = biological target: Mitogen-activated protein kinase kinase kinase 4 (Homo sapiens, UniProt Q9Y6R4)
[4] = biological target: T2, Peroxisomal acyl-coenzyme A oxidase 3 (Homo sapiens, UniProt O15254)
T2 sequence (O15254 whole entry): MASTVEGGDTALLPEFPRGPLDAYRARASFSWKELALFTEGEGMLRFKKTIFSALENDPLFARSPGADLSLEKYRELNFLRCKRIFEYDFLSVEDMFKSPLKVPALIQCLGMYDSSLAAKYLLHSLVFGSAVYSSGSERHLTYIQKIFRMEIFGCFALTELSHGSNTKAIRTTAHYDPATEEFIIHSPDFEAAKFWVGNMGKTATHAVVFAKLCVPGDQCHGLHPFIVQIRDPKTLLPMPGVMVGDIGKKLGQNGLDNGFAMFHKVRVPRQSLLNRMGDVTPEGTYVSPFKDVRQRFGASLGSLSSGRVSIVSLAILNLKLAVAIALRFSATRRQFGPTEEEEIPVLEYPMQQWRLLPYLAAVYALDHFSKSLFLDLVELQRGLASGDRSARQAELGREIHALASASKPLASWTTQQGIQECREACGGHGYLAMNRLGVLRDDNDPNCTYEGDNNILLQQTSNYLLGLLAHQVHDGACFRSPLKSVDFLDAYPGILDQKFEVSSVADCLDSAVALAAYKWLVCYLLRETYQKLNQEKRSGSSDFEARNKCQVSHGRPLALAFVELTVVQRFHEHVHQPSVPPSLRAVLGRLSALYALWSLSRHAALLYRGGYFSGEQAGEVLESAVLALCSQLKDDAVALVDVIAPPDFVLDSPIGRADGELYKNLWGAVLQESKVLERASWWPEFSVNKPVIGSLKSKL

[5] = biological target: T3, Cytochrome c1, heme protein, mitochondrial (Homo sapiens, UniProt P08574)
T3 sequence (P08574 whole entry): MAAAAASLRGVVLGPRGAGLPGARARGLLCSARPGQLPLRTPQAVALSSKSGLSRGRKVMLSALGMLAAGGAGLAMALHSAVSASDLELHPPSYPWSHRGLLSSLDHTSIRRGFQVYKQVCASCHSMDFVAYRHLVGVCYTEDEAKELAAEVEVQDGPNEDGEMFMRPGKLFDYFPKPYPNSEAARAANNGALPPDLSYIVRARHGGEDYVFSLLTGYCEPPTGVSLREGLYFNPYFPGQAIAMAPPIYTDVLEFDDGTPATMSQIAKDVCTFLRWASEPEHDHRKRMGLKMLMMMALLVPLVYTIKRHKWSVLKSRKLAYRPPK

[6] = biological target: Ribosomal protein S6 kinase alpha-5 (Homo sapiens, UniProt O75582)
Ephrin type-B receptor 6 = biological target: T4, Ephrin type-B receptor 6 (Homo sapiens, UniProt O15197)
T4 sequence (O15197 whole entry): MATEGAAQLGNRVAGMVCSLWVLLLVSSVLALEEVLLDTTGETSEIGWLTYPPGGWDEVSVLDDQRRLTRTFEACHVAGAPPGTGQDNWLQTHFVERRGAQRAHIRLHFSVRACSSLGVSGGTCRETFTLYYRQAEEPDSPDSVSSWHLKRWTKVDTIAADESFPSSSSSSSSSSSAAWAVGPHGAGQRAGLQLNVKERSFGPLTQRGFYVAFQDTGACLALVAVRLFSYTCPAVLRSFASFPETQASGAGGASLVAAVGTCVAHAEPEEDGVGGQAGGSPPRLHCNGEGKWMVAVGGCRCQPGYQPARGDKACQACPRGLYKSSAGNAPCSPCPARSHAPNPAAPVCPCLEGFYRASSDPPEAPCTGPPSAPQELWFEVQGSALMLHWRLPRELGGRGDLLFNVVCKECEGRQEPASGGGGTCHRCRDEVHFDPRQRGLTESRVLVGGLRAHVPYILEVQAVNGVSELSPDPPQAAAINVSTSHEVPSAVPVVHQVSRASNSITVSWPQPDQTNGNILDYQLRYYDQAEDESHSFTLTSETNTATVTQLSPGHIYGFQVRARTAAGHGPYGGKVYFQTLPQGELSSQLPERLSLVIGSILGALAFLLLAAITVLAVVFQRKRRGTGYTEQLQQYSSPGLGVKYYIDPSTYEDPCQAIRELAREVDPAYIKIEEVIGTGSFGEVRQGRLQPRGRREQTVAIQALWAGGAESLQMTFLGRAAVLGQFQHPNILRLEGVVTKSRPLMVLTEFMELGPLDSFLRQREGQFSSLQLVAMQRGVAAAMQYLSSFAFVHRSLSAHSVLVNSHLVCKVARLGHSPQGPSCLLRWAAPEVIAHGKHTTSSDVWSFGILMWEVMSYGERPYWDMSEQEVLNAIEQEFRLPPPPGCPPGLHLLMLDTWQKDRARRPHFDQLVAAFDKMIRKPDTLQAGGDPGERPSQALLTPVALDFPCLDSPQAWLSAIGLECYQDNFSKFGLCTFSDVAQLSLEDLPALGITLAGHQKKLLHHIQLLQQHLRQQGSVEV

[7] = biological target: Mitogen-activated protein kinase 1 (Homo sapiens, UniProt P28482)
Also: in the data inactive means no Kd found up to 30 µM.

Chain of Mitogen-activated protein kinase 1 (P28482 whole entry): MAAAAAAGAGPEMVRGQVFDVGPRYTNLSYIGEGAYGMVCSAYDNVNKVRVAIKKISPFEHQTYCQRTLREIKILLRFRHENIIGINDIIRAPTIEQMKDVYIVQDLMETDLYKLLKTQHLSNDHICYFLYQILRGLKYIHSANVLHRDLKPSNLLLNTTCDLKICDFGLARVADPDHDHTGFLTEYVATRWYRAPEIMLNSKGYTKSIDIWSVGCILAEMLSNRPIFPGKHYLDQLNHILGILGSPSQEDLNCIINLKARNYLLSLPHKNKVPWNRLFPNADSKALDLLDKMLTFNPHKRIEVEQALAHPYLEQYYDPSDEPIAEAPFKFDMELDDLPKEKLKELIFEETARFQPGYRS
Chain of Mitogen-activated protein kinase kinase kinase 4 (Q9Y6R4 whole entry): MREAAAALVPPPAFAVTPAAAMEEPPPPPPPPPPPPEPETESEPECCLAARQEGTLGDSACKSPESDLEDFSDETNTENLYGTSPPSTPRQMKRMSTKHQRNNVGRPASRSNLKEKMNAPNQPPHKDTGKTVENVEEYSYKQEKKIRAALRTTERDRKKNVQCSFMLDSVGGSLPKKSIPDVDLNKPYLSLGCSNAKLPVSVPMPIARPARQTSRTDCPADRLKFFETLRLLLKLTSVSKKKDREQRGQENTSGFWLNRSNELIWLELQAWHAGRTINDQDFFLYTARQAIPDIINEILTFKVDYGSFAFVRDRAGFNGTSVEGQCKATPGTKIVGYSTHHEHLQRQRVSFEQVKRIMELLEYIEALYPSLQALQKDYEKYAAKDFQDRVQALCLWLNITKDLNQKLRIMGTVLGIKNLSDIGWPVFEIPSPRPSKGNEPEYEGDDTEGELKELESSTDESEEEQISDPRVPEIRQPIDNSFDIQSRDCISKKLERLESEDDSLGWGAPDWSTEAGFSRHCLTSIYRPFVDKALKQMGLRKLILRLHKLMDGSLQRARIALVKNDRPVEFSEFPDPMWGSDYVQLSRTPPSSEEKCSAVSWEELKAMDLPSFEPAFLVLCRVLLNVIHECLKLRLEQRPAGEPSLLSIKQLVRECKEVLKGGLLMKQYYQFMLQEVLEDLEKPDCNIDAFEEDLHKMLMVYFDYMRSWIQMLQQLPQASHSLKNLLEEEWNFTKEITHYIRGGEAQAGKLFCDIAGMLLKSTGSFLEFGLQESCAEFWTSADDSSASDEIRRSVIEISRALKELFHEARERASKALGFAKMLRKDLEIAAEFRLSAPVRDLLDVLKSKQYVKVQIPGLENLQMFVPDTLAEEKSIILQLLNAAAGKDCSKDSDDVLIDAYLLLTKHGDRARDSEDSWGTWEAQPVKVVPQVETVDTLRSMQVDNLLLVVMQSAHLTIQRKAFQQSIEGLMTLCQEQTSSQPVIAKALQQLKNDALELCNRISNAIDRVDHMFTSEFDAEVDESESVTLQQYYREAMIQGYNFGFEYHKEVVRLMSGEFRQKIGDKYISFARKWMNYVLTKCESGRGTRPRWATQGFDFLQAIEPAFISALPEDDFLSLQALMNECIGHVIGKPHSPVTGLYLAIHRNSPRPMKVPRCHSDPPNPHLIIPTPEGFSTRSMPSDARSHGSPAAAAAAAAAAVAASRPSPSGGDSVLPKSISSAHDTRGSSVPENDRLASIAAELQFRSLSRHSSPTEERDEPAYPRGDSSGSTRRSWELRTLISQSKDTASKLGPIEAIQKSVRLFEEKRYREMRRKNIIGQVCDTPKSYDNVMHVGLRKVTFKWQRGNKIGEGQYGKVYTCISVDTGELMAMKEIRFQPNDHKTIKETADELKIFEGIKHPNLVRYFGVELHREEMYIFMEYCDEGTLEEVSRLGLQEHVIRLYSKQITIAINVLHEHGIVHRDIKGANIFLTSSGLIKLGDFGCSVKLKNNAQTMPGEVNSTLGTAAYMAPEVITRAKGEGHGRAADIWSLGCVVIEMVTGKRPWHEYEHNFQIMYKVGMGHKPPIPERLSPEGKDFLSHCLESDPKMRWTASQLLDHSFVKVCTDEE
Chain of Ribosomal protein S6 kinase alpha-5 (O75582 whole entry): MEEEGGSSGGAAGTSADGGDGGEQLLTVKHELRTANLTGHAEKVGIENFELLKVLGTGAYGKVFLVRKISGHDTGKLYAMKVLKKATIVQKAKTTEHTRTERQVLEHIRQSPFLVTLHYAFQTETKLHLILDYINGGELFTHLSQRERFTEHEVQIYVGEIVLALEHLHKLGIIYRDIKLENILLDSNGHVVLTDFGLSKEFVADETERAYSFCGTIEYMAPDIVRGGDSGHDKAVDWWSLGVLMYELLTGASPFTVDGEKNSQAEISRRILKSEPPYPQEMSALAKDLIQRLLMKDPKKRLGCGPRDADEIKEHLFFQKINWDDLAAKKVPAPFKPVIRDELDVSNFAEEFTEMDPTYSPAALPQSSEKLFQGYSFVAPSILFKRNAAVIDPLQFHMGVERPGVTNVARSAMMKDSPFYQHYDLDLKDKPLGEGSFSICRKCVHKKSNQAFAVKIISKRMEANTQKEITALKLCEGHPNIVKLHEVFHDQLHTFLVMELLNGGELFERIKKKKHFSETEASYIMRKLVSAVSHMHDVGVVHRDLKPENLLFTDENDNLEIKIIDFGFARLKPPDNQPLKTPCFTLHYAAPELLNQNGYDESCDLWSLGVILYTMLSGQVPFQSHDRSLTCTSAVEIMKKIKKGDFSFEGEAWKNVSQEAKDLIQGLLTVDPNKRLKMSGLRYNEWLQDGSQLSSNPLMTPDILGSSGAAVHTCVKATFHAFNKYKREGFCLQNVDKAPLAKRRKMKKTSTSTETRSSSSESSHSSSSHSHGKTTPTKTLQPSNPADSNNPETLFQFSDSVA
Chain of Non-receptor tyrosine-protein kinase TYK2 (P29597 whole entry): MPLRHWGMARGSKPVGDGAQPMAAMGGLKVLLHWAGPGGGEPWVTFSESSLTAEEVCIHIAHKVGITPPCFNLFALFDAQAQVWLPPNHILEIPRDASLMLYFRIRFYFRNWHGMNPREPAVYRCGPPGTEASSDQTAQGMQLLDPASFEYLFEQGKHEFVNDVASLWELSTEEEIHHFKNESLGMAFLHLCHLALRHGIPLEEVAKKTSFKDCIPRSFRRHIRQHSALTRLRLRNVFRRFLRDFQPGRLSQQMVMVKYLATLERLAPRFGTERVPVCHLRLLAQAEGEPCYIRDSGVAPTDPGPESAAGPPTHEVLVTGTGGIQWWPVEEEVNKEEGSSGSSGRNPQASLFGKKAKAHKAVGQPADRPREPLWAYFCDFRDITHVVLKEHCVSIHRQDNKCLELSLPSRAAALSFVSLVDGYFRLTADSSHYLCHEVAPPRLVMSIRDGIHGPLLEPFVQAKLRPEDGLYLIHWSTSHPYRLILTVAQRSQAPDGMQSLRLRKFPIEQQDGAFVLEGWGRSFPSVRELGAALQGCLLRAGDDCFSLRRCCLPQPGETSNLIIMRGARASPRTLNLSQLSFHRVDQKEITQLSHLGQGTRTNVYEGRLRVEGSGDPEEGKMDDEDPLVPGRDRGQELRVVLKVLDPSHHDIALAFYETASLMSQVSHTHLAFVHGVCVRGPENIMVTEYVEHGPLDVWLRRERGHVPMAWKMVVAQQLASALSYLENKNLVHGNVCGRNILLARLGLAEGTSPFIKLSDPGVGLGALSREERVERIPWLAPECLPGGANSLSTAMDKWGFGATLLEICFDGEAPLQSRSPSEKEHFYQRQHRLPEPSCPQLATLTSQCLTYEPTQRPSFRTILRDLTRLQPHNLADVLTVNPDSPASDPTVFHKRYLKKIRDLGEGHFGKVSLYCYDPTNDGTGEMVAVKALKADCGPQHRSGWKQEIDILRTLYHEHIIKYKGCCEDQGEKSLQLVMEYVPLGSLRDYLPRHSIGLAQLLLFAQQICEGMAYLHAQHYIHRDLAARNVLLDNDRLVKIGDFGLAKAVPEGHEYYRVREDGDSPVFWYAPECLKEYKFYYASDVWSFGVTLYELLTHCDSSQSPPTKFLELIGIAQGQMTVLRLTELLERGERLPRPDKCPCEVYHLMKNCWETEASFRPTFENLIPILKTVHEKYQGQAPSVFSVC

| Compound | Kd [1] | Kd [2] | Kd [3] | Kd [4] | Kd [5] | Kd [6] | Kd (Ephrin type-B receptor 6) | Kd [7] |
| --- | --- | --- | --- | --- | --- | --- | --- | --- |
| N#CC1(c2ccc(NC(=O)c3cccnc3NCc3ccncc3)cc2)CCCC1 [RIVOCERANIB] | > 30 µM (inactive) | > 30 µM (inactive) | > 30 µM (inactive) | > 30 µM (inactive) | > 30 µM (inactive) | > 30 µM (inactive) | > 30 µM (inactive) | > 30 µM (inactive) |
| O=c1[nH]ccc2cc(OC3CCNCC3)ccc12 [SAR-407899 FREE BASE] | > 30 µM (inactive) | > 30 µM (inactive) | > 30 µM (inactive) | > 30 µM (inactive) | > 30 µM (inactive) | > 30 µM (inactive) | > 30 µM (inactive) | > 30 µM (inactive) |
| CN1CCN(CCOc2cc(OC3CCOCC3)c3c(Nc4c(Cl)ccc5c4OCO5)ncnc3c2)CC1 [SARACATINIB] | > 30 µM (inactive) | > 30 µM (inactive) | > 30 µM (inactive) | > 30 µM (inactive) | > 30 µM (inactive) | > 30 µM (inactive) | 3.6 µM (active) | > 30 µM (inactive) |
| Cn1cc(-c2cnn3c(N)c(Br)c([C@@H]4CCCNC4)nc23)cn1 [SCH-900776] | > 30 µM (inactive) | > 30 µM (inactive) | > 30 µM (inactive) | > 30 µM (inactive) | > 30 µM (inactive) | > 30 µM (inactive) | > 30 µM (inactive) | > 30 µM (inactive) |
| CO[C@H]1C[C@@H]2CC[C@@H](C)[C@@](O)(O2)C(=O)C(=O)N2CCCC[C@H]2C(=O)O[C@H]([C@H](C)C[C@@H]2CC[C@@H](O)[C@H](OC)C2)CC(=O)[C@H](C)/C=C(\C)[C@@H](O)[C@@H](OC)C(=O)[C@H](C)C[C@H](C)/C=C/C=C/C=C/1C [SIROLIMUS] | > 30 µM (inactive) | > 30 µM (inactive) | > 30 µM (inactive) | > 30 µM (inactive) | > 30 µM (inactive) | > 30 µM (inactive) | > 30 µM (inactive) | > 30 µM (inactive) |
| CCS(=O)(=O)c1cccc(-c2cc(C(=O)NC3CCN(C)CC3)c(C)c3[nH]c4ncc(C)cc4c23)c1 [TAK-901] | > 30 µM (inactive) | > 30 µM (inactive) | > 30 µM (inactive) | > 30 µM (inactive) | > 30 µM (inactive) | > 30 µM (inactive) | 0.451 µM | > 30 µM (inactive) |
| CO[C@H]1C[C@@H]2CC[C@@H](C)[C@@](O)(O2)C(=O)C(=O)N2CCCC[C@H]2C(=O)O[C@H]([C@H](C)C[C@@H]2CC[C@@H](OC(=O)C(C)(CO)CO)[C@H](OC)C2)CC(=O)[C@H](C)/C=C(\C)[C@@H](O)[C@@H](OC)C(=O)[C@H](C)C[C@H](C)/C=C/C=C/C=C/1C [TEMSIROLIMUS] | > 30 µM (inactive) | > 30 µM (inactive) | > 30 µM (inactive) | > 30 µM (inactive) | > 30 µM (inactive) | > 30 µM (inactive) | > 30 µM (inactive) | > 30 µM (inactive) |
| COc1cc2c(Nc3ccc(Cl)c(Cl)c3F)ncnc2cc1OC[C@@H]1C[C@@H]2CN(C)C[C@@H]2C1 [TESEVATINIB] | > 30 µM (inactive) | > 30 µM (inactive) | > 30 µM (inactive) | > 30 µM (inactive) | > 30 µM (inactive) | > 30 µM (inactive) | 0.259 µM | > 30 µM (inactive) |
| O=C(Cc1ccc(-c2ccc(OCCN3CCOCC3)cc2)cn1)NCc1ccccc1 [TIRBANIBULIN] | > 30 µM (inactive) | > 30 µM (inactive) | > 30 µM (inactive) | > 30 µM (inactive) | > 30 µM (inactive) | > 30 µM (inactive) | > 30 µM (inactive) | > 30 µM (inactive) |
| O=C1NC(=O)[C@@H](c2cn3c4c(cccc24)CCC3)[C@@H]1c1c[nH]c2ccccc12 [TIVANTINIB] | > 30 µM (inactive) | > 30 µM (inactive) | > 30 µM (inactive) | > 30 µM (inactive) | > 30 µM (inactive) | > 30 µM (inactive) | > 30 µM (inactive) | > 30 µM (inactive) |
| C[C@@H](NC(=O)c1ncnc(N)c1Cl)c1ncc(C(=O)Nc2cc(C(F)(F)F)c(Cl)cn2)s1 [TOVORAFENIB] | > 30 µM (inactive) | > 30 µM (inactive) | > 30 µM (inactive) | > 30 µM (inactive) | > 30 µM (inactive) | > 30 µM (inactive) | 3.34 µM (active) | > 30 µM (inactive) |
| Cc1cc(Nc2ncnc3ccc(NC4=NC(C)(C)CO4)cc23)ccc1Oc1ccn2ncnc2c1 [TUCATINIB] | > 30 µM (inactive) | > 30 µM (inactive) | > 30 µM (inactive) | > 30 µM (inactive) | > 30 µM (inactive) | > 30 µM (inactive) | > 30 µM (inactive) | > 30 µM (inactive) |
| Cn1ncc(Cl)c1-c1cc(C(=O)N[C@H](CN)Cc2ccc(F)c(F)c2)oc1Cl [UPROSERTIB] | > 30 µM (inactive) | > 30 µM (inactive) | > 30 µM (inactive) | > 30 µM (inactive) | > 30 µM (inactive) | > 30 µM (inactive) | > 30 µM (inactive) | > 30 µM (inactive) |
| CC(C)c1cc(CNc2nc(Nc3cc(C4CC4)[nH]n3)cc(N3CCN(C)CC3)n2)on1 [XL-228] | > 30 µM (inactive) | > 30 µM (inactive) | > 30 µM (inactive) | > 30 µM (inactive) | > 30 µM (inactive) | > 30 µM (inactive) | 0.026 µM (active) | > 30 µM (inactive) |
| C[C@@H](N)c1ccc(C(=O)Nc2ccnc3[nH]ccc23)cc1 [Y-39983] | > 30 µM (inactive) | > 30 µM (inactive) | > 30 µM (inactive) | > 30 µM (inactive) | > 30 µM (inactive) | > 30 µM (inactive) | > 30 µM (inactive) | > 30 µM (inactive) |

Source: ChEMBL document CHEMBL3991601, “The target landscape of clinical kinase drugs” (Science, 2017)
